We go through 18 molecules from patent publication US8481531B2, “Bicyclic heterocyclyl derivatives as FGFR kinase inhibitors for therapeutic use” (Astex Therapeutics Ltd, priority 2009, dated 2013).

The target of one assay is T1, FGFR3 (Homo sapiens, UniProt P22607).
T1 construct: purchased Upstate
Briefly: FGFR3 in vitro kinase inhibitory activity assay (TRF). Particulars: 8 μM ATP, 3 hours; read-out: FGFR3 IC50(μM) or % I. Type of assay: biochemical. The protocol: (§1) FGFR3, VEGFR2 and PDGFR in vitro Kinase Inhibitory Activity Assays
(§2) Enzymes (from Upstate), prepared at 2× final concentration, were incubated with test compounds, biotinylated Flt3 substrate (biotin-VASSDNEYFYVDF) (Cell Signalling Technology Inc.) and ATP in the appropriate assay buffer (Table 1). The reaction was allowed to proceed for 3 hours (FGFR3), 1 hour (VEGFR2, PDGFR-beta) at room temperature on a plate shaker at 700 rpm before being stopped with 35 mM EDTA, pH 8 (FGFR3, VEGFR2) or 55 mM EDTA, pH 8 (PDGFR-beta). 5× detection mix (50 mM HEPES pH 7.5, 0.1% BSA, 11.34 nM Eu-anti-pY (PY20) (PerkinElmer) 74 nM SA-XL665 (Cisbio) for FGFR3, 50 mM HEPES, pH 7.5, 0.1% BSA, 11.34 nM Eu-anti-pY (PY20), 187.5 nM SA-XL665 for VEGFR2 and 50 mM HEPES, pH 7.5, 0.1% BSA, 11.34 nM Eu-anti-pY (PT66) (PerkinElmer), 375 nM SA-XL665 (Cisbio) for PDGFR-beta) was then added to each well and the plate sealed and incubated at room temperature for one hour on a plate shaker at 700 rpm. The plate was then read on a Packard Fusion plate reader or a BMG Pherastar both in TRF mode.

The next assay concerns the target T2, VEGFR2 (Homo sapiens, UniProt P35968).
T2 construct: purchased Upstate
Nature of the assay: VEGFR2 in vitro kinase inhibitory activity assay (TRF). The class given is biochemical. The settings on record: read-out: VEGFR2 IC50(μM) or % I; for IC50: 0.5 μM ATP, 1 hour. The procedure:
as §1, §2

Assay [1] concerns parental wild-type Ba/F3 cells. Nature of the assay: Ba/F3 (WT) cell proliferation assay (Alamar Blue). Type of assay: cell-based. The settings on record: BaF3, 72 hours, read-out: BaF3 WT prolif; for IC50: with mouse IL-3. The procedure:
(§3) Ba/F3-TEL-FGFR3 & Ba/F3 (WT) Cell Proliferation Assays
(§4) Stably transfected Ba/F3-TEL-FGFR3 cells were plated out into black 96-well tissue culture plates with clear bottoms in RPMI medium containing 10% FBS and 0.25 mg/ml G418 at a density of 5×10^3 cells/well (200 μl per well). The parental wild-type Ba/F3 cells (DSMZ no.: ACC 300) were plated out into black 96-well tissue culture plates with clear bottoms in RPMI medium containing 10% FBS and 2 ng/ml mouse IL-3 (R&D Systems) at a density of 2.5×10^3 cells/well (200 μl per well). Plates were placed in an incubator overnight before adding the compounds the following day. Dilutions of compounds were made in DMSO starting at 10 mM and were diluted into the wells to give a final DMSO concentration of 0.1% in assay. Compounds were left on the cells for 72 hours before the plates were removed from the incubator and 20 μl of Alamar Blue™ (Biosource) was added to each well. Plates were placed in the incubator for 4-6 hours before reading plates at 535 nm (excitation)/590 nm (emission) on a Fusion plate reader (Packard). Where inhibition is high an IC50 can be determined.

The next assay has as its target T3, Ba/F3-TEL-FGFR3 cells (Homo sapiens, UniProt P22607).
T3 construct: fused on or other part: P41212 (Transcription factor ETV6)
Nature of the assay: Ba/F3-TEL-FGFR3 cell proliferation assay (Alamar Blue). The class given is cell-based. The settings on record: 72 hours; read-out: BaF3-TEL-FGFR3 prolif. The procedure: as §3, §4
For orientation: Resazurin is reduced to fluorescent resorufin, in cell work by metabolically active cells.

T3 sequence (P22607 whole entry, change not shown, the tested form may be a part): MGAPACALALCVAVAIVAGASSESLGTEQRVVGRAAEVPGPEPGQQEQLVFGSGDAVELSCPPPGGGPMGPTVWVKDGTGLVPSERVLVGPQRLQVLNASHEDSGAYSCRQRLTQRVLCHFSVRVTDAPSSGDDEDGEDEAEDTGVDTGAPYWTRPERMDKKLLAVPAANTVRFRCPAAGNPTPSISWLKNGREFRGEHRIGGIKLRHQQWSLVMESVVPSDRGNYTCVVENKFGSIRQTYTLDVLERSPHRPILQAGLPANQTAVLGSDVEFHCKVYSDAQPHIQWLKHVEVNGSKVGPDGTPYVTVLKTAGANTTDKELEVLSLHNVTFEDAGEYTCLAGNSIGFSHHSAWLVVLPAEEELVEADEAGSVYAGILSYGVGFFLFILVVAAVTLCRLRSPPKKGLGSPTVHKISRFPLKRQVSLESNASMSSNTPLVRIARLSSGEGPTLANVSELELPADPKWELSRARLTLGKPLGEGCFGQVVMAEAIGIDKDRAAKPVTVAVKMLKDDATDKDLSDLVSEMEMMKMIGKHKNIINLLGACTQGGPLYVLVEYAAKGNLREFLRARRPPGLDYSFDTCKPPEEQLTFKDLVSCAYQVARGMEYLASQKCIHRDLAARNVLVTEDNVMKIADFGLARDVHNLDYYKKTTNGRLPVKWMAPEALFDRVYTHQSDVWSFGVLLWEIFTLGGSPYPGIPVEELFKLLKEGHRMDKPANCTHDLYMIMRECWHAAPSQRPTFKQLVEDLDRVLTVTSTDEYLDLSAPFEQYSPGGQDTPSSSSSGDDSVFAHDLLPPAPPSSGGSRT
T2 sequence (P35968 20-1356): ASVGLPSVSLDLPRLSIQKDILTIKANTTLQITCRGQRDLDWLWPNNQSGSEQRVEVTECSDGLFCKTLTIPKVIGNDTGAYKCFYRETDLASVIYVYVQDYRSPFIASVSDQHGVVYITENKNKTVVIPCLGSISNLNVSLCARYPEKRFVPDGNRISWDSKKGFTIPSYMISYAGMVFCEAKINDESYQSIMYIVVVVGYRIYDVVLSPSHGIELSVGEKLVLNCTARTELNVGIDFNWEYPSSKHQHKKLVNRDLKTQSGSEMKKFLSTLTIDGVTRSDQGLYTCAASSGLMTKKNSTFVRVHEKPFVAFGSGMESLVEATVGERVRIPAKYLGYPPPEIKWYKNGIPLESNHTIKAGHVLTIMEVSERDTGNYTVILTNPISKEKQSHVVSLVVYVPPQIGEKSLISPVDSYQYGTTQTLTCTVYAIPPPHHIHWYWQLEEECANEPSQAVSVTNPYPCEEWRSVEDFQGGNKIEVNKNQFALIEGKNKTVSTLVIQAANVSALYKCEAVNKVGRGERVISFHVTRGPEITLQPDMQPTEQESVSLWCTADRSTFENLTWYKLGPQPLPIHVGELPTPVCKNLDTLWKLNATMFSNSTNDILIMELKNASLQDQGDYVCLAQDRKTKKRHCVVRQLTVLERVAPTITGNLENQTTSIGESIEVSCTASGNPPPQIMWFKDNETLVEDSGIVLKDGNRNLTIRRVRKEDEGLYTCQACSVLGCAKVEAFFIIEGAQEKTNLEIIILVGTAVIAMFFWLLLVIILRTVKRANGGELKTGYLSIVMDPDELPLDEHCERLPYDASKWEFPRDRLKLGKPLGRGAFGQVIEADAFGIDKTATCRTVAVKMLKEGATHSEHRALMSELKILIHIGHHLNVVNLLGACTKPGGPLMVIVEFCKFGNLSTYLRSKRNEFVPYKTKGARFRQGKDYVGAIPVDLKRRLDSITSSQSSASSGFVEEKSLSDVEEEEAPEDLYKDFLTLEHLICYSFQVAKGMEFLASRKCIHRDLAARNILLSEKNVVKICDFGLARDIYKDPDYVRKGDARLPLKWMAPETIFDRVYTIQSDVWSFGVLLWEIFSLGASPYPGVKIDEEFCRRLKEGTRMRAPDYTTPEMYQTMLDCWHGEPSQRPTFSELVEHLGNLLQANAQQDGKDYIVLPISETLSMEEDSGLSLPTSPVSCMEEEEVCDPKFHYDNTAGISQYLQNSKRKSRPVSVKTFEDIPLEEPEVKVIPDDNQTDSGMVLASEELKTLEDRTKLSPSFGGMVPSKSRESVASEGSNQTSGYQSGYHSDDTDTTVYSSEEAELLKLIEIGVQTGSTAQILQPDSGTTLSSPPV
T1 sequence (P22607 23-806): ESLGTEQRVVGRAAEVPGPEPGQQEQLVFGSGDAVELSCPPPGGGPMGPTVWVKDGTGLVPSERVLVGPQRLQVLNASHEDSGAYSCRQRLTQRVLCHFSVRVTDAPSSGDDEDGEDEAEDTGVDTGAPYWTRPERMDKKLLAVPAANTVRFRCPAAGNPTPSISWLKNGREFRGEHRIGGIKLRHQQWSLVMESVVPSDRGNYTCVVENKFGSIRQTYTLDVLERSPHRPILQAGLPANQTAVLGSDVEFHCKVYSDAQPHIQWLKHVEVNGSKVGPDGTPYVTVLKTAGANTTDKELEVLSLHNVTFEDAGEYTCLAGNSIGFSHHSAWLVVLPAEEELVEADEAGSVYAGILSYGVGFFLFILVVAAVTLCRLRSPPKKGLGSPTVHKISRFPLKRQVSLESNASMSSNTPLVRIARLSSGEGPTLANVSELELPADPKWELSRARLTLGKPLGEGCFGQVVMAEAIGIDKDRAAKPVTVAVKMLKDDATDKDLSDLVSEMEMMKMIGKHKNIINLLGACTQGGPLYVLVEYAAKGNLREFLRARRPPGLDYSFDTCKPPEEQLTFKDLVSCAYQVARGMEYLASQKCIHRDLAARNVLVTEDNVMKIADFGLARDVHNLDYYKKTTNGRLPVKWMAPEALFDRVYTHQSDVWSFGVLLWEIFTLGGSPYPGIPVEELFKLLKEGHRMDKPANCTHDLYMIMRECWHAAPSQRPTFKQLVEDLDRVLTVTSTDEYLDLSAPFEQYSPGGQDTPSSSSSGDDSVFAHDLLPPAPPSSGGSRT

Consider `COCCON=Cc1ccn2c(-c3cccc(NC(=O)NCC(F)(F)F)c3)cnc2c1` [Compound 1-1, 1-(3-{7-[(2-Methoxy-ethoxyimino)-methyl]-imidazo[1,2-a]pyridin-3-yl}-phenyl)-3-(2,2,2-trifluoro-ethyl)-urea], for which the IC50 on FGFR3 stood at 0.0194 µM; at VEGFR2 it was 0.635 µM; in assay [1], 310 nM. For the same molecule, the GI50 on Ba/F3-TEL-FGFR3 cells was 210 nM.
The matching figures for `COCCOCCON=Cc1ccn2c(-c3cccc(NC(=O)NCC(F)(F)F)c3)cnc2c1` [Compound 1-2, 1-[3-(7-{[2-(2-Methoxy-ethoxy)-ethoxyimino]-methyl}-imidazo[1,2-a]pyridin-3-yl)-phenyl]-3-(2,2,2-trifluoro-ethyl)-urea]: 0.019 µM, 0.885 µM, 1600 nM and 290 nM.
For `O=C(NCC(F)(F)F)Nc1cccc(-c2cnc3cc(C=NOCCCN4CCOCC4)ccn23)c1` [Compound 1-3, 1-(3-{7-[(3-Morpholin-4-yl-propoxyimino)-methyl]-imidazo[1,2-a]pyridin-3-yl}-phenyl)-3-(2,2,2-trifluoro-ethyl)-urea], the IC50 on FGFR3 came to 0.018 µM; on VEGFR2, 0.682 µM; in assay [1], 2800 nM. The GI50 at Ba/F3-TEL-FGFR3 cells was 310 nM.
The matching figures for `O=C(NCC(F)(F)F)Nc1cccc(-c2cnc3cc(C=NOCc4ccncc4)ccn23)c1` [Compound 1-4, 1-(3-{7-[(Pyridin-4-ylmethoxyimino)-methyl]-imidazo[1,2-a]pyridin-3-yl}-phenyl)-3-(2,2,2-trifluoro-ethyl)-urea]: 0.014 µM, 0.23 µM, 5300 nM and 260 nM.
Turning to `O=C(NCC(F)(F)F)Nc1cccc(-c2cnc3cc(C=NOc4ncccn4)ccn23)c1` [Compound 1-5, 1-(3-{7-[(Pyrimidin-2-yloxyimino)-methyl]-imidazo[1,2-a]pyridin-3-yl}-phenyl)-3-(2,2,2-trifluoro-ethyl)-urea], the IC50 is 0.0313 µM on FGFR3 and 0.877 µM on VEGFR2. The inhibition at 10 µM in assay [1] (Mus musculus) amounted to 10%. The GI50 on Ba/F3-TEL-FGFR3 cells came out at 2300 nM.
Regarding `O=C(NCC(F)(F)F)Nc1cccc(-c2cnc3cc(C=NOCc4ccccn4)ccn23)c1` [Compound 1-6, 1-(3-{7-[(Pyridin-2-ylmethoxyimino)-methyl]-imidazo[1,2-a]pyridin-3-yl}-phenyl)-3-(2,2,2-trifluoro-ethyl)-urea], the results for the IC50 on FGFR3 and on VEGFR2 were 0.013 µM and 0.48 µM, respectively.
Regarding `O=C(NCC(F)(F)F)Nc1cccc(-c2cnc3cc(C=NOCCOCCO)ccn23)c1` [Compound 1-7, 1-[3-(7-{[2-(2-Hydroxy-ethoxy)-ethoxyimino]-methyl}-imidazo[1,2-a]pyridin-3-yl)-phenyl]-3-(2,2,2-trifluoro-ethyl)-urea], the IC50 at FGFR3 is 0.0185 µM; at VEGFR2, 0.584 µM. For the same molecule, in assay [1] (Mus musculus, % at 3.00 μM), the inhibition at 3 µM amounted to 20%. The GI50 at Ba/F3-TEL-FGFR3 cells turned out to be 420 nM.
As for `O=C(NCC(F)(F)F)Nc1cccc(-c2cnc3cc(C=NOCc4ccc(Cl)s4)ccn23)c1` [Compound 1-8, 1-(3-{7-[(5-Chloro-thiophen-2-ylmethoxyimino)-methyl]-imidazo[1,2-a]pyridin-3-yl}-phenyl)-3-(2,2,2-trifluoro-ethyl)-urea], the results for the IC50 (at FGFR3; at VEGFR2; in assay [1]) were 0.215 µM, above 10 µM and 828 nM, respectively. Also, on Ba/F3-TEL-FGFR3 cells, the GI50 is 17.5 nM.
Turning to `Cc1nc(CON=Cc2ccn3c(-c4cccc(NC(=O)NCC(F)(F)F)c4)cnc3c2)cs1` [Compound 1-9, 1-(3-{7-[(2-Methyl-thiazol-4-ylmethoxyimino)-methyl]-imidazo[1,2-a]pyridin-3-yl}-phenyl)-3-(2,2,2-trifluoro-ethyl)-urea], the IC50 is 0.014 µM on FGFR3 and 0.68 µM at VEGFR2.
`CN1CCC(ON=Cc2ccn3c(-c4cccc(NC(=O)NCC(F)(F)F)c4)cnc3c2)CC1` [Compound 1-10, 1-(3-{7-[(1-Methyl-piperidin-4-yloxyimino)-methyl]-imidazo[1,2-a]pyridin-3-yl}-phenyl)-3-(2,2,2-trifluoro-ethyl)-urea]: the IC50 at FGFR3 worked out at 0.019 µM; on VEGFR2 it was 0.27 µM; in assay [1] it was 2800 nM. Moreover, the GI50 on Ba/F3-TEL-FGFR3 cells is 140 nM.
Regarding `O=C(NCC(F)(F)F)Nc1cccc(-c2cnc3cc(C=NOCC4CC4)ccn23)c1` [Compound 1-11, 1-{3-[7-(Cyclopropylmethoxyimino-methyl)-imidazo[1,2-a]pyridin-3-yl]-phenyl}-3-(2,2,2-trifluoro-ethyl)-urea], the IC50 amounted to 0.027 µM on FGFR3 and 880 nM in assay [1]. Besides, the inhibition at 1 µM at VEGFR2 (1 h, % I at 1 μM) was determined as 46%. Further, the GI50 on Ba/F3-TEL-FGFR3 cells is 600 nM.
With `Cc1noc(C)c1CON=Cc1ccn2c(-c3cccc(NC(=O)NCC(F)(F)F)c3)cnc2c1` [Compound 1-12, 1-(3-{7-[(3,5-Dimethyl-isoxazol-4-ylmethoxyimino)-methyl]-imidazo[1,2-a]pyridin-3-yl}-phenyl)-3-(2,2,2-trifluoro-ethyl)-urea], the figures for the IC50 on FGFR3 and at VEGFR2 were 0.018 µM and 0.54 µM, respectively. Further, the inhibition at 10 µM in assay [1] (Mus musculus) is 38%. Moreover, the GI50 on Ba/F3-TEL-FGFR3 cells was 240 nM.
Take `Cc1cc(CON=Cc2ccn3c(-c4cccc(NC(=O)NCC(F)(F)F)c4)cnc3c2)n(C)n1` [Compound 1-13, 1-(3-{7-[(2,5-Dimethyl-2H-pyrazol-3-ylmethoxyimino)-methyl]-imidazo[1,2-a]pyridin-3-yl}-phenyl)-3-(2,2,2-trifluoro-ethyl)-urea]: the IC50 at FGFR3 turned out to be 0.03 µM; on VEGFR2, 0.66 µM. Besides, the inhibition at 1 µM in assay [1] (Mus musculus, % at 1.00 μM) is 46%. Also, the GI50 at Ba/F3-TEL-FGFR3 cells was found to be 300 nM.
For `Cn1cncc1CO/N=C/c1ccn2c(-c3cccc(NC(=O)NCC(F)(F)F)c3)cnc2c1` [Compound 1-20, 1-(3-{7-[(3-Methyl-3H-imidazol-4-ylmethoxyimino)-methyl]-imidazo[1,2-a]pyridin-3-yl}-phenyl)-3-(2,2,2-trifluoro-ethyl)-urea], the IC50 came out at 0.0071 µM at FGFR3 and 0.36 µM at VEGFR2.
`CO/N=C(\C)c1ccn2c(-c3cccc(NC(=O)NCC(F)(F)F)c3)cnc2c1` [Compound 1-22]: the IC50 at FGFR3 was found to be 0.0051 µM; on VEGFR2, 0.092 µM.
As to `COCCN(C)CCON=Cc1ccn2c(-c3cccc(NC(=O)NCC(F)(F)F)c3)cnc2c1` [Compound 1-40, 1-{3-[7-({2-[(2-Methoxy-ethyl)-methyl-amino]-ethoxyimino}-methyl)-imidazo[1,2-a]pyridin-3-yl]-phenyl}-3-(2,2,2-trifluoro-ethyl)-urea], the IC50 was found to be 0.028 µM at FGFR3 and 0.72 µM on VEGFR2.
The matching figures for `C/C(=N\OCCCN1CCOCC1)c1ccn2c(-c3cccc(NC(=O)NCC(F)(F)F)c3)cnc2c1` [Compound 1-44, 1-[3-(7-{1-3-Morpholin-4-yl-propoxyimino-ethyl}-imidazo[1,2-a]pyridin-3-yl)-phenyl]-3-(2,2,2-trifluoro-ethyl)-urea]: 0.0038 µM and 0.059 µM.
As to `CC(C)Oc1cc(NC(=O)NCC(F)(F)F)cc(-c2cnc3cc(/C(=N\OCCO)C4CC4)ccn23)c1` [Compound 1-64, 1-[3-(7-{Cyclopropyl-[(Z)-2-hydroxyethoxyimino]-methyl}-imidazo[1,2-a]pyridin-3-yl)-5-isopropoxy-phenyl]-3-(2,2,2-trifluoro-ethyl)-urea], the IC50 on FGFR3 was found to be 0.03 µM; on VEGFR2, 1.2 µM. Moreover, the GI50 at Ba/F3-TEL-FGFR3 cells turned out to be 500 nM.
